In ChEMBL document CHEMBL3425445, “Synthesis, crystal structure and biological evaluation of substituted quinazolinone benzoates as novel antituberculosis agents targeting acetohydroxyacid synthase” (Eur J Med Chem, 2015):
Converted amounts (≈) assume the structure as drawn.

Tests used:
[1] = tested on: Mycobacterium tuberculosis; experiment: Antitubercular activity against Mycobacterium tuberculosis H37Rv ATCC 27294 infected in human THP-1 cells assessed as inhibition of intracellular activity at 10 mg/L after 4 days; format: functional; settings: H37Rv ATCC 27294, THP-1, 96 h
[2] = tested on: Mycobacterium tuberculosis; experiment: Antitubercular activity against Mycobacterium tuberculosis H37Rv ATCC 27294 infected in human THP-1 cells assessed as inhibition of intracellular activity at 20 mg/L after 4 days; format: functional; settings: H37Rv ATCC 27294, THP-1, 96 h
[3] = Inhibition of Mycobacterium tuberculosis AHAS catalytic subunit assessed as inhibition of acetoin formation using […] as substrate after 1 hr
[4] = tested on: Mycobacterium tuberculosis; experiment: Antitubercular activity against isoniazid, rifampin, streptomycin, ethambutol, amikacin, ofloxacin, kanamycin-susceptible Mycobacterium tuberculosis infected in human THP-1 cells assessed as inhibition of intracellular activity at 10 mg/L after 4 days; format: functional; settings: THP-1, 96 h
[5] = tested on: Mycobacterium tuberculosis; experiment: Inhibition of Mycobacterium tuberculosis AHAS catalytic subunit assessed as inhibition of acetoin formation using […] as substrate at 100 uM after 1 hr
THP-1 = experiment: Cytotoxicity against human THP1 cells at 20 mg/L by MTT assay; format: cell-based
[6] = tested on: Mycobacterium tuberculosis; experiment: Antitubercular activity against Mycobacterium tuberculosis H37Rv ATCC 27294 assessed as inhibition of bacterial growth after 4 weeks by two-fold dilution technique; format: functional; settings: H37Rv ATCC 27294, 672 h
[7] = tested on: Mycobacterium tuberculosis; experiment: Antitubercular activity against isoniazid, rifampin, streptomycin, ethambutol, amikacin, ofloxacin, kanamycin-susceptible Mycobacterium tuberculosis assessed as inhibition of bacterial growth after 4 weeks by two-fold dilution technique; format: functional; settings: 672 h
[8] = tested on: Mycobacterium tuberculosis; experiment: Antitubercular activity against isoniazid, rifampin, streptomycin, ethambutol, amikacin, ofloxacin, kanamycin-susceptible Mycobacterium tuberculosis infected in human THP-1 cells assessed as inhibition of intracellular activity at 20 mg/L after 4 days; format: functional; settings: THP-1, 96 h

SMILES	inhibition at 10 µg/mL [1] [%]	inhibition at 20 µg/mL [2] [%]	IC50 [3] [µM]	inhibition at 10 µg/mL [4] [%]	inhibition [5] [%]	Activity (THP-1)	MIC [6] [µg/mL]	MIC [7] [µg/mL]	inhibition at 20 µg/mL [8] [%]
O=C(On1c(-c2cccc(F)c2)nc2ccccc2c1=O)c1cccc(F)c1	24.8	49.5	6.5	23.4	72	Non-toxic	2.5 (≈ 6.61 µM)	2.5 (≈ 6.61 µM)	48.2
NNC(=O)c1ccncc1 [ISONIAZID]								0.2 (≈ 1.46 µM)	
COc1cccc(-c2nc3ccccc3c(=O)n2OC(=O)c2cccc(Cl)c2)c1			> 100		23.5		> 50		
COc1cccc(C(=O)On2c(-c3ccccc3)nc3ccccc3c2=O)c1			> 100		27		> 50		
Cc1cccc(-c2nc3ccccc3c(=O)n2OC(=O)c2ccccc2)c1			> 100		40.5		> 50		
O=C(On1c(-c2ccccc2)nc2ccccc2c1=O)c1ccc(Cl)cc1			> 100		7.5		> 50		
O=C(On1c(-c2ccccc2)nc2ccccc2c1=O)c1cccc(Cl)c1			12.1		80.5		5 (≈ 13.3 µM)	5 (≈ 13.3 µM)	
O=C(On1c(-c2ccccc2)nc2ccccc2c1=O)c1ccccc1			> 100		20.5		> 50		
Cc1cccc(-c2nc3ccccc3c(=O)n2OC(=O)c2ccc(Cl)cc2)c1			> 100		0		> 50		
O=C(On1c(-c2cccc(F)c2)nc2ccccc2c1=O)c1cccc(C(F)(F)F)c1			> 100		30		> 50		
Cc1cccc(C(=O)On2c(-c3cccc(C)c3)nc3ccccc3c2=O)c1			> 100		10.5		> 50		
CO[C@H]1/C=C/O[C@@]2(C)Oc3c(C)c(O)c4c(O)c(c(/C=N/N5CCN(C)CC5)c(O)c4c3C2=O)NC(=O)/C(C)=C\C=C\[C@H](C)[C@H](O)[C@@H](C)[C@@H](O)[C@@H](C)[C@H](OC(C)=O)[C@@H]1C [RIFAMPIN]								0.4 (≈ 0.486 µM)	
Cc1cccc(-c2nc3ccccc3c(=O)n2OC(=O)c2cccc(C(F)(F)F)c2)c1			> 100		9.5		> 50		
Cc1ccccc1C(=O)On1c(-c2ccccc2)nc2ccccc2c1=O			> 100		16.5		> 50		
COc1cccc(C(=O)On2c(-c3cccc(F)c3)nc3ccccc3c2=O)c1			> 100		28		50 (≈ 128 µM)		
Cc1ccc(C(=O)On2c(-c3ccccc3)nc3ccccc3c2=O)cc1			> 100		18		> 50		
O=C(On1c(-c2cccc(F)c2)nc2ccccc2c1=O)c1ccccc1			> 100		26		50 (≈ 139 µM)		
COC(=O)c1ccccc1S(=O)(=O)NC(=O)Nc1nc(C)cc(C)n1 [SULFOMETURON METHYL]	15.9	32.5	4.79	15.5			10 (≈ 27.4 µM)	10 (≈ 27.4 µM)	32.3
O=C(On1c(-c2cccc(F)c2)nc2ccccc2c1=O)c1cccc(Cl)c1			> 100		42.5		> 50		
O=C(On1c(-c2ccccc2)nc2ccccc2c1=O)c1cccc(F)c1			> 100		26		> 50		
Cc1cccc(-c2nc3ccccc3c(=O)n2OC(=O)c2cccc(F)c2)c1			> 100		9.5		> 50		
Cc1cccc(C(=O)On2c(-c3ccccc3)nc3ccccc3c2=O)c1			> 100		4		> 50		
COc1cccc(-c2nc3ccccc3c(=O)n2OC(=O)c2cccc([N+](=O)[O-])c2)c1			8.74		94		5 (≈ 12 µM)	5 (≈ 12 µM)	
COc1cccc(-c2nc3ccccc3c(=O)n2OC(=O)c2cccc(C(F)(F)F)c2)c1			9.57		73.2		10 (≈ 22.7 µM)	10 (≈ 22.7 µM)	
Cc1ccc(C(=O)On2c(-c3cccc(C)c3)nc3ccccc3c2=O)cc1			> 100		33		> 50		
Cc1ccccc1-c1nc2ccccc2c(=O)n1OC(=O)c1cccc(F)c1			> 100		30		> 50		
O=C(On1c(-c2ccccc2)nc2ccccc2c1=O)c1cccc([N+](=O)[O-])c1			9.68		91.5		5 (≈ 12.9 µM)	5 (≈ 12.9 µM)	
